Patent US20030139469A1, “Use of inhibitors of soluble epoxide hydrolase to inhibit vascular smooth muscle cell proliferation” (THE REGENTS OF THE UNIVERSITY OF CALIFORNIA, priority 2002, published 2003)
Entries after “also recorded” stand apart in the source; their conditions may differ. One block for each compound: values may come before it.

Assays:
[1] = system: soluble epoxide hydrolase (sEH); assay: inhibition of soluble epoxide hydrolase; format: biochemical, human
Excerpt: Epoxide hydrolases (“EH;” EC 3.3.2.3) are enzymes in the alpha beta hydrolase fold family that add water to 3 membered cyclic ethers termed epoxides. Soluble epoxide hydrolase (sEH) is an enzyme which in endothelial and smooth muscle cells converts EETs to dihydroxy derivatives called dihydroxyeicosatrienoic acids (DHETs). The cloning and sequence of the murine sEH is set forth in Grant et al., J. Biol. Chem. 268(23):17628-17633 (1993). The cloning, sequence, and accession numbers of the human sEH sequence are set forth in Beetham et al., Arch. Biochem. Biophys. 305(1): 197-201 (1993). The evolution and nomenclature of the gene is discussed in Beetham et al., DNA Cell Biol. 14(1):61-71 (1995). Unless otherwise specified, as used herein, the terms “soluble epoxide hydrolase” and “sEH” refer to human sEH. Derivatives of urea are transition state mimetics that form a preferred group of sEH inhibitors. […] Any particular urea derivative or other compound can be easily tested for its ability to inhibit sEH by standard assays, such as the one used in the Examples herein. […] The enzyme also can be detected based on the binding of specific ligands to the catalytic site which either immobilize the enzyme or label it with a probe such as luciferase, green fluorescent protein or other reagent. […]

metabolic stability = format: in vitro ADME
porcine aortic VSM cells = conditions: 14,15-EET 2 μM, chalcone oxide with PDGF and exogenous EETs; cited from earlier work
[2] = system: spontaneously hypertensive rats; conditions: injection; cited from earlier work
[3] = system: soluble epoxide hydrolase (sEH); conditions: cited from earlier work

activity as an inhibitor of sEH [1]: particularly high activity
metabolic stability (metabolic stability): metabolically stable
Compound: CCCCCCCCCCCCNC(=O)NC12CC3CC(CC(C3)C1)C2 [ADU, N-adamantyl-N′-dodecyl urea]

Compound: CCCCCC1OC1C/C=C\C/C=C\C/C=C\CCCC(=O)O (stereo not drawn) [14,15-EET]
PDGF-mediated DNA synthesis / mitogenesis (porcine aortic VSM cells): increase PDGF-mediated DNA synthesis

Compound: O=C(NC1CCCCC1)NC1CCCCC1 [DCU, N,N′-dicyclohexylurea]
systemic blood pressure [2]: lowering of blood pressure; also recorded: lower systemic blood pressure

Compound: O=C(c1ccccc1)C1OC1c1ccc(-c2ccccc2)cc1 (stereo not drawn) [4-phenylchalcone oxide, reference compound]
in vitro inhibition of epoxide hydrolases [3]: potent
PDGF-mediated DNA synthesis / mitogenesis (porcine aortic VSM cells): additive increase in mitogenesis
